Experimental data: PubChem BioAssay AID1919006 (Molecular Pharmacology Branch, DTP, NCI, 2023)

System: 885512-296-R-J2-PDC complex spheroid growth, % test/control
Assay: Anticancer human tumor 885512-296-R-J2-PDC patient-derived breast carcinoma cell line growth inhibition [AhR]
Details: for IC50: curve of first compound; for viability, T/C: stronger effect = lower value
Method in brief: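 Complex tumor spheroids co-cultured with HUVEC and human MSC stroma; AhR antagonists tested in combination with standard-of-care and investigational agents. Top concentration at or near clinical Cmax (else 10 microM), half-log dilutions; growth expressed as percent test/control.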

[1] = second compound 0.1 µM, first compound 0.0316 µM
[2] = second compound 0.1 µM, first compound 0.1 µM
[3] = second compound 0.1 µM, first compound 0.316 µM
[4] = second compound 0.1 µM, first compound 1 µM
[5] = second compound 0.1 µM, first compound 3.16 µM
[6] = second compound 0.1 µM, first compound 10 µM
[7] = second compound 0.316 µM, first compound 0.0316 µM
[8] = second compound 0.316 µM, first compound 0.1 µM
[9] = second compound 0.316 µM, first compound 0.316 µM
[10] = second compound 0.316 µM, first compound 1 µM
[11] = second compound 0.316 µM, first compound 3.16 µM
[12] = second compound 0.316 µM, first compound 10 µM
[13] = second compound 1 µM, first compound 0.0316 µM
[14] = second compound 1 µM, first compound 0.1 µM
[15] = second compound 1 µM, first compound 0.316 µM
[16] = second compound 1 µM, first compound 1 µM
[17] = second compound 1 µM, first compound 3.16 µM
[18] = second compound 1 µM, first compound 10 µM
[19] = second compound 3.16 µM, first compound 0.0316 µM
[20] = second compound 3.16 µM, first compound 0.1 µM
[21] = second compound 3.16 µM, first compound 0.316 µM
[22] = second compound 3.16 µM, first compound 1 µM
[23] = second compound 3.16 µM, first compound 3.16 µM
[24] = second compound 3.16 µM, first compound 10 µM
[25] = second compound 10 µM, first compound 0.0316 µM
[26] = second compound 10 µM, first compound 0.1 µM
[27] = second compound 10 µM, first compound 0.316 µM
[28] = second compound 10 µM, first compound 1 µM
[29] = second compound 10 µM, first compound 3.16 µM
[30] = second compound 10 µM, first compound 10 µM
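Note: spheroids exposed to compounds for seven days.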

CC1(C)CCC(CN2CCN(c3ccc(C(=O)NS(=O)(=O)c4ccc(NCC5CCOCC5)c([N+](=O)[O-])c4)c(Oc4cnc5[nH]ccc5c4)c3)CC2)=C(c2ccc(Cl)cc2)C1 + Cc1ccccc1N=Nc1ccc(NC(=O)c2ccnn2C)c(C)c1
IC50 (second compound 0.1 µM): 4.21 µM | IC50 (second compound 0.316 µM): 4.24 µM | IC50 (second compound 1 µM): 4.14 µM | IC50 (second compound 3.16 µM): 3.05 µM | IC50 (second compound 10 µM): 0.288 µM | viability, T/C [1]: 107% | viability, T/C [2]: 85.4% | viability, T/C [3]: 103% | viability, T/C [4]: 90.2% | viability, T/C [5]: 61.4% | viability, T/C [6]: 16.1% | viability, T/C [7]: 109% | viability, T/C [8]: 116% | viability, T/C [9]: 102% | viability, T/C [10]: 85.1% | viability, T/C [11]: 63.7% | viability, T/C [12]: 15.8% | viability, T/C [13]: 97.9% | viability, T/C [14]: 97.8% | viability, T/C [15]: 94.2% | viability, T/C [16]: 86% | viability, T/C [17]: 60.4% | viability, T/C [18]: 15.5% | viability, T/C [19]: 93.8% | viability, T/C [20]: 83.1% | viability, T/C [21]: 83.3% | viability, T/C [22]: 73.3% | viability, T/C [23]: 48.3% | viability, T/C [24]: 14.9% | viability, T/C [25]: 46.4% | viability, T/C [26]: 53.8% | viability, T/C [27]: 53.2% | viability, T/C [28]: 44.6% | viability, T/C [29]: 40.2% | viability, T/C [30]: 15.7%

COc1ccc([C@@H](O)c2cc(-c3ncnc4cc(N5CCOCC5)ccc34)c(F)cc2Cl)nn1 + Cc1ccccc1N=Nc1ccc(NC(=O)c2ccnn2C)c(C)c1
IC50 (second compound 0.1 µM): 8.29 µM | IC50 (second compound 0.316 µM): 7.98 µM | IC50 (second compound 1 µM): 6.55 µM | IC50 (second compound 3.16 µM): 5.96 µM | IC50 (second compound 10 µM): < 0.0316 µM | viability, T/C [1]: 107% | viability, T/C [2]: 106% | viability, T/C [3]: 91% | viability, T/C [4]: 80% | viability, T/C [5]: 74% | viability, T/C [6]: 44.3% | viability, T/C [7]: 92.9% | viability, T/C [8]: 117% | viability, T/C [9]: 110% | viability, T/C [10]: 95.7% | viability, T/C [11]: 71.4% | viability, T/C [12]: 44.8% | viability, T/C [13]: 112% | viability, T/C [14]: 96% | viability, T/C [15]: 100% | viability, T/C [16]: 78.9% | viability, T/C [17]: 60% | viability, T/C [18]: 44.2% | viability, T/C [19]: 85.4% | viability, T/C [20]: 92.9% | viability, T/C [21]: 83.2% | viability, T/C [22]: 69% | viability, T/C [23]: 66.4% | viability, T/C [24]: 38.9% | viability, T/C [25]: 46.2% | viability, T/C [26]: 49.9% | viability, T/C [27]: 47% | viability, T/C [28]: 48.3% | viability, T/C [29]: 38.9% | viability, T/C [30]: 26.2%

CC(C)CC(NC(=O)C(Cc1ccccc1)NC(=O)c1cnccn1)B(O)O (stereo not given) + Cc1ccccc1N=Nc1ccc(NC(=O)c2ccnn2C)c(C)c1
IC50 (second compound 0.1 µM): 0.00658 µM | IC50 (second compound 0.316 µM): 0.00708 µM | IC50 (second compound 1 µM): 0.00629 µM | IC50 (second compound 3.16 µM): 0.00614 µM | IC50 (second compound 10 µM): 0.00321 µM | viability, T/C (second compound 0.1 µM, first compound 0.000949 µM): 96.7% | viability, T/C (second compound 0.1 µM, first compound 0.003 µM): 105% | viability, T/C (second compound 0.1 µM, first compound 0.00949 µM): 26.3% | viability, T/C (second compound 0.1 µM, first compound 0.03 µM): 1.3% | viability, T/C (second compound 0.1 µM, first compound 0.0949 µM): 0.26% | viability, T/C (second compound 0.1 µM, first compound 0.3 µM): 0.15% | viability, T/C (second compound 0.316 µM, first compound 0.000949 µM): 115% | viability, T/C (second compound 0.316 µM, first compound 0.003 µM): 122% | viability, T/C (second compound 0.316 µM, first compound 0.00949 µM): 26.6% | viability, T/C (second compound 0.316 µM, first compound 0.03 µM): 1.13% | viability, T/C (second compound 0.316 µM, first compound 0.0949 µM): 0.18% | viability, T/C (second compound 0.316 µM, first compound 0.3 µM): 0.13% | viability, T/C (second compound 1 µM, first compound 0.000949 µM): 111% | viability, T/C (second compound 1 µM, first compound 0.003 µM): 101% | viability, T/C (second compound 1 µM, first compound 0.00949 µM): 21.8% | viability, T/C (second compound 1 µM, first compound 0.03 µM): 1.27% | viability, T/C (second compound 1 µM, first compound 0.0949 µM): 0.5% | viability, T/C (second compound 1 µM, first compound 0.3 µM): 0.13% | viability, T/C (second compound 3.16 µM, first compound 0.000949 µM): 82% | viability, T/C (second compound 3.16 µM, first compound 0.003 µM): 94.2% | viability, T/C (second compound 3.16 µM, first compound 0.00949 µM): 26.8% | viability, T/C (second compound 3.16 µM, first compound 0.03 µM): 1.47% | viability, T/C (second compound 3.16 µM, first compound 0.0949 µM): 0.16% | viability, T/C (second compound 3.16 µM, first compound 0.3 µM): 0.14% | viability, T/C (second compound 10 µM, first compound 0.000949 µM): 58% | viability, T/C (second compound 10 µM, first compound 0.003 µM): 50.3% | viability, T/C (second compound 10 µM, first compound 0.00949 µM): 25.8% | viability, T/C (second compound 10 µM, first compound 0.03 µM): 1.46% | viability, T/C (second compound 10 µM, first compound 0.0949 µM): 0.3% | viability, T/C (second compound 10 µM, first compound 0.3 µM): 0.18%
